What was measured:
[1] = refractive index (Na D-line) (dimensionless); settings: 303.15 K; 101.33 kPa; Liquid; Standard Abbe refractometry
[2] = 101.33 kPa, Liquid; for electrical conductivity: Alternating current cell with electrodes; for viscosity: Falling or rolling sphere viscometry; for speed of sound: Sing-around technique in a fixed-path interferometer; for mass density: Vibrating tube method
[3] = wn = mass fraction of the nth substance listed; settings: 303.15 K, 100 kPa, Liquid; for electrical conductivity: Alternating current cell with electrodes; for viscosity: Falling or rolling sphere viscometry; for speed of sound: Frequency=3 MHz, Sing-around technique in a fixed-path interferometer; for mass density: Vibrating tube method

CCCC[NH2+]CCO.O=C([O-])C(F)(F)F [N-(2-hydroxyethyl)butan-1-aminium 2,2,2-trifluoroacetate]
Settings | refractive index
[1] | 1.4126

[2]
Settings | electrical conductivity [S/m] | mass density [kg/m3] | speed of sound [m/s] | viscosity [mPa·s]
303.15 K | 0.0391 | 1203.34 | 1282.6 | 211.7
308.15 K | 0.0494 | 1198.07 | 1270 | 171.1
313.15 K | 0.0596 | 1194.18 | 1257.7 | 135.3
318.15 K | 0.0703 | 1190.28 | 1245.7 | 104.6
323.15 K | 0.0811 | 1186.37 | 1233.9 | 81.7
328.15 K | 0.0916 | 1182.48 | 1222.4 | 64.7
333.15 K | 0.103 | 1178.6 | 1211 | 52.3
338.15 K | 0.116 | 1174.73 | 1199.8 | 42.8
343.15 K | 0.128 | 1170.87 | 1188.7 | 35.6

CCCC[NH2+]CCO.O=C([O-])C(F)(F)F [N-(2-hydroxyethyl)butan-1-aminium 2,2,2-trifluoroacetate] + O
[3]
Settings | electrical conductivity [S/m] | mass density [kg/m3] | speed of sound [m/s] | viscosity [mPa·s]
w2 = 0.002186 | 0.0391 | 1203.34 | 1282.6 | 211.7
w2 = 0.003652 | 0.0393 | – | – | –
w2 = 0.003864 | – | 1203.51 | 1282.9 | 211.1
w2 = 0.004819 | 0.0394 | – | – | –
w2 = 0.005373 | – | 1203.68 | 1283.2 | 210.4
w2 = 0.006342 | 0.0396 | – | – | –
w2 = 0.006759 | – | 1203.81 | 1283.4 | 209.8
w2 = 0.007483 | 0.0398 | – | – | –
w2 = 0.008675 | – | 1204 | 1283.7 | 209.1

CCCC[NH2+]CCO.O=[N+]([O-])[O-] [N-(2-hydroxyethyl)butan-1-aminium nitrate]
Settings | refractive index
[1] | 1.4675

[2]
Settings | electrical conductivity [S/m] | mass density [kg/m3] | speed of sound [m/s] | viscosity [mPa·s]
303.15 K | 0.0583 | 1114.69 | 1608.3 | 272.1
308.15 K | 0.0701 | 1111.58 | 1595.7 | 202.9
313.15 K | 0.085 | 1108.47 | 1583.5 | 154
318.15 K | 0.0982 | 1105.35 | 1571.5 | 119.2
323.15 K | 0.115 | 1102.25 | 1559.7 | 93.3
328.15 K | 0.136 | 1099.15 | 1548.1 | 74.1
333.15 K | 0.16 | 1096.07 | 1536.7 | 59.6
338.15 K | 0.182 | 1093 | 1525.4 | 48.8
343.15 K | 0.2 | 1089.95 | 1514.3 | 40.6

CCCC[NH2+]CCO.O=[N+]([O-])[O-] [N-(2-hydroxyethyl)butan-1-aminium nitrate] + O
[3]
Settings | electrical conductivity [S/m] | mass density [kg/m3] | speed of sound [m/s] | viscosity [mPa·s]
w2 = 0.002318 | 0.0583 | 1114.69 | 1608.3 | 272.1
w2 = 0.003573 | 0.0585 | – | – | –
w2 = 0.003967 | – | 1114.88 | 1608.7 | 271.5
w2 = 0.004837 | 0.0587 | – | – | –
w2 = 0.005068 | – | 1115.01 | 1609 | 271.1
w2 = 0.006108 | 0.0589 | – | – | –
w2 = 0.006904 | – | 1115.21 | 1609.4 | 270.5
w2 = 0.007452 | 0.0591 | – | – | –
w2 = 0.008717 | – | 1115.39 | 1609.8 | 269.8
